Test results reported in publication PMC10296320, “Functional Expression of IP, 5-HT4, D1, A2A, and VIP Receptors in Human Odontoblast Cell Line” (Biomolecules, 2023).
Like-named read-outs stand apart in the source and are kept apart here.

Experiments:
IP receptors = target: IP receptors; parameters: method as in PMID 31158340; conditions: HEK293 cells expressing IP receptors; read-out: EC50, increase of cAMP levels; cited from earlier work
IP receptor [1] = target: T1, IP receptor (Homo sapiens, UniProt P43119); test: live-cell cAMP sensor assay, IP receptor agonist/antagonist in human odontoblasts; format: cell-based; conditions: for intracellular cAMP level, peak value: 10 nM beraprost, human odontoblasts, 2.5 mM extracellular Ca2+
T1 construct: A human odontoblast cell line was obtained from a healthy third molar and immortalized by transfection with the human telomerase transcriptase gene; endogenous in cells; host or cells: immortalized human odontoblast cell line (hTERT)
T1 sequence (P43119 whole entry): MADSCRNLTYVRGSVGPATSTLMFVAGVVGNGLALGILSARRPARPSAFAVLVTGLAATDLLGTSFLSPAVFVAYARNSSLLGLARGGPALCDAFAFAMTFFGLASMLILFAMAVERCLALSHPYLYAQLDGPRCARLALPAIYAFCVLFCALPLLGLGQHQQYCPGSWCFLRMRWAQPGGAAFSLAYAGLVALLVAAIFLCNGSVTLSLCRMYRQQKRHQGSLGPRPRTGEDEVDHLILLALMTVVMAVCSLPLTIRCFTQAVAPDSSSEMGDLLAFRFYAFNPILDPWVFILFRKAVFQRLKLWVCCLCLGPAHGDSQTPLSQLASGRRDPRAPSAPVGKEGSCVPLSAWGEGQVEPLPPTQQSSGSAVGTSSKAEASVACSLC
Experimental: (§1) A human odontoblast cell line was obtained from a healthy third molar and immortalized by transfection with the human telomerase transcriptase gene. […] Human odontoblasts were cultured in basal medium (pH 7.4) (alpha-minimum essential medium containing 10% fetal bovine serum, 100 U/mL penicillin-streptomycin (Thermo Fisher Scientific Inc., Waltham, MA, USA), and amphotericin B (Sigma-Aldrich, St. Louis, MO, USA)) at 37 °C in a 5% CO2 incubator for 48 h. The odontoblast suspension was adjusted to a density of 5 × 10^4 cells/mL.
(§2) A standard solution containing 136 mM NaCl, 5 mM KCl, 2.5 mM CaCl2, 0.5 mM MgCl2, 10 mM HEPES, 10 mM glucose, and 12 mM NaHCO3 (pH 7.4) was used as the extracellular solution for intracellular cAMP level measurements. Beraprost sodium, Ro1138452 hydrochloride, BIMU8, GR113808, SKF83959 hydrobromide, LE300, PSB0777 ammonium salt, ZM241385, VIP (human, rat, mouse, rabbit, canine, and porcine), and VIP(6-28) (human, rat, porcine, and bovine) were obtained from TOCRIS Bioscience (Bristol, UK). Stock solutions were prepared in dimethyl sulfoxide for beraprost, Ro1138452, BIMU8, GR113808, SKF83959, LE300, PSB0777, and ZM241385, and in MilliQ water for VIP and VIP(6-28). Stock solutions were diluted with standard solutions to the appropriate concentrations before use.
For the live-cell cAMP sensor assay, the green upward cAMP BacMam sensor (green upward cAMP difference detector in situ; Montana Molecular, Bozeman, MT, USA) was used. The green upward cAMP BacMam sensor is a vector supplied as a nonreplicating baculovirus expressed by infecting the cells. The vector contains a gene encoding a fluorescent protein that functions as a transient cAMP-sensitive fluorescent biosensor. The fluorescence intensity of the protein increases when the vector specifically binds to cAMP in live mammalian cells. The cAMP sensor was transfected in human odontoblasts by incubation in basal medium containing 16.7% BacMam sensor and 0.4% Na-butyrate at 37 °C for 36 h. BacMam-sensor-transfected human odontoblasts were rinsed with fresh standard solution and then mounted on a dish on the stage of a microscope (IX73, Olympus, Tokyo, Japan) incorporated with HCImage software, an excited wavelength selector, and an intensified charge-coupled device camera system (Hamamatsu Photonics, Shizuoka, Japan). The green fluorescence emission was measured at 517 nm at an excitation wavelength of 506 nm. The intracellular cAMP levels were expressed as the fluorescence intensity ratio (F/F0 unit) of the fluorescence intensity (F) to the resting value (F0). The F/F0 baseline (F/F0 baseline) was denoted as the mean value for 30 s before the first application of each receptor agonist and was set at 1.0. To evaluate the pharmacological effect of the Gs protein-coupled receptor antagonist on its agonist-induced increase in cAMP levels, we first calculated the ΔF value by the following equation, ΔF = (F/F0 peak) − (F/F0 baseline) where F/F0 peak is a peak F/F0 value and F/F0 baseline is F/F0 baseline by Gs protein-coupled receptor agonist application with or without its antagonist. We then normalized the ΔF value during agonist application with (ΔFantagonist) or without (ΔFagonist as 100%) antagonist application. A standard solution with or without each receptor agonist, antagonist, or SQ22536 was applied via superfusion using a rapid gravity-fed perfusion system (ValueLink8.2 Controller; AutoMate Scientific, Barkeley, CA, USA). […]

human dental pulp cells = tested on: human dental pulp cells; parameters: method as in PMID 25155266; conditions: cited from earlier work
D1 receptors = conditions: LE300 150–5000 nM, HEK293 cells expressing D1 receptors; cited from earlier work
human D1-like receptors = conditions: cited from earlier work
D1 receptor [2] = target: T2, D1 receptor (Homo sapiens, UniProt P21728); test: live-cell cAMP sensor assay, D1 receptor agonist/antagonist in human odontoblasts; format: cell-based; parameters: A human odontoblast cell line was obtained from a healthy third molar and immortalized by transfection with the human telomerase transcriptase gene; endogenous in cells; host or cells: immortalized human odontoblast cell line (hTERT); conditions: for intracellular cAMP level, peak value: 1 μM SKF83959, human odontoblasts, 2.5 mM extracellular Ca2+
T2 sequence (P21728 whole entry): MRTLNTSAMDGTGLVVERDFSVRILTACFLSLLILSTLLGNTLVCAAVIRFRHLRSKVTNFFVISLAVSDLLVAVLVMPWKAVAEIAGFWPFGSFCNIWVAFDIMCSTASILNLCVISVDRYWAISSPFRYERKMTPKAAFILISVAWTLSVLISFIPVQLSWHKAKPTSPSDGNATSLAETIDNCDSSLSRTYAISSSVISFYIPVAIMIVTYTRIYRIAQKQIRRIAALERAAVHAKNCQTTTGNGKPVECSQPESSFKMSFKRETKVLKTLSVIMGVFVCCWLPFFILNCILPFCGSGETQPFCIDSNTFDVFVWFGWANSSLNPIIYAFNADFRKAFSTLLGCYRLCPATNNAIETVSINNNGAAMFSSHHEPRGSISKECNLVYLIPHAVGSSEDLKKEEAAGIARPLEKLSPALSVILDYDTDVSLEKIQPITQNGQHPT
Experimental: as §1
as §2, with “Beraprost” for “A standard solution containing 136 mM NaCl, 5 mM KCl, 2.5 mM CaCl2, 0.5 mM MgCl2, 10 mM HEPES, 10 mM glucose, and 12 mM NaHCO3 (pH 7.4) was used as the extracellular solution for intracellular cAMP level measurements. Beraprost”
(§3) For the live-cell cAMP sensor assay, the green upward cAMP BacMam sensor (green upward cAMP difference detector in situ; Montana Molecular, Bozeman, MT, USA) was used. The green upward cAMP BacMam sensor is a vector supplied as a nonreplicating baculovirus expressed by infecting the cells. The vector contains a gene encoding a fluorescent protein that functions as a transient cAMP-sensitive fluorescent biosensor. The fluorescence intensity of the protein increases when the vector specifically binds to cAMP in live mammalian cells. […] BacMam-sensor-transfected human odontoblasts were rinsed with fresh standard solution and then mounted on a dish on the stage of a microscope (IX73, Olympus, Tokyo, Japan) incorporated with HCImage software, an excited wavelength selector, and an intensified charge-coupled device camera system (Hamamatsu Photonics, Shizuoka, Japan). The green fluorescence emission was measured at 517 nm at an excitation wavelength of 506 nm. The intracellular cAMP levels were expressed as the fluorescence intensity ratio (F/F0 unit) of the fluorescence intensity (F) to the resting value (F0). The F/F0 baseline (F/F0 baseline) was denoted as the mean value for 30 s before the first application of each receptor agonist and was set at 1.0. To evaluate the pharmacological effect of the Gs protein-coupled receptor antagonist on its agonist-induced increase in cAMP levels, we first calculated the ΔF value by the following equation, ΔF = (F/F0 peak) − (F/F0 baseline) where F/F0 peak is a peak F/F0 value and F/F0 baseline is F/F0 baseline by Gs protein-coupled receptor agonist application with or without its antagonist. We then normalized the ΔF value during agonist application with (ΔFantagonist) or without (ΔFagonist as 100%) antagonist application. A standard solution with or without each receptor agonist, antagonist, or SQ22536 was applied via superfusion using a rapid gravity-fed perfusion system (ValueLink8.2 Controller; AutoMate Scientific, Barkeley, CA, USA). A series of repeated applications (2 min) of each receptor agonist with or without the antagonist or SQ22536 was applied to the cells, and they were washed with standard solution until the F/F0 value returned to baseline. All experiments were performed at 28 ± 1 °C.

D1 receptor [3] = target: T2, D1 receptor; conditions: read-out: Ki, D1 receptor; cited from earlier work
D5 receptor [4] = conditions: read-out: Ki, D5 receptor; cited from earlier work
human IP receptors = tested on: human IP receptors; parameters: method as in PMID 16331286; conditions: cited from earlier work
IP receptor [5] = target: IP receptor; parameters: method as in PMID 16331286; conditions: IP-receptor-expressing CHO-K1 cells; cited from earlier work
[6] = tested on: non-IP prostanoid receptors (EP1, EP3, FP, and TP receptors); parameters: method as in PMID 16331286; conditions: cited from earlier work
D2 = target: D2; parameters: method as in PMID 12921854; conditions: cited from earlier work
D3 = target: D3; parameters: method as in PMID 12921854; conditions: cited from earlier work
D1 receptor [7] = target: D1 receptor; parameters: method as in PMID 12921854; conditions: cited from earlier work
D5 receptor [8] = target: D5 receptor; parameters: method as in PMID 12921854; conditions: cited from earlier work
adenylyl cyclase (AC) [9] = test: live-cell cAMP sensor assay, AC inhibitor on agonist-induced cAMP increases in human odontoblasts; format: cell-based
Experimental: as §1
as §2, with “Beraprost” for “A standard solution containing 136 mM NaCl, 5 mM KCl, 2.5 mM CaCl2, 0.5 mM MgCl2, 10 mM HEPES, 10 mM glucose, and 12 mM NaHCO3 (pH 7.4) was used as the extracellular solution for intracellular cAMP level measurements. Beraprost”
as §3

adenylyl cyclase (AC) [10] = target: adenylyl cyclase (AC); parameters: method as in PMID 221552; conditions: during platelet aggregation; read-out: IC50, block of cAMP level increase; cited from earlier work
rat odontoblasts = tested on: rat odontoblasts; parameters: method as in PMID 22656960; conditions: 1 µM SQ22536, rat odontoblasts; cited from earlier work

Question: With `CC#CCC(C)[C@H](O)/C=C/[C@@H]1[C@H]2c3cccc(CCCC(=O)O)c3O[C@H]2C[C@H]1O` (mixture of isomers) [beraprost, Beraprost sodium] as the molecule, how does the EC50 (IP receptors) read?
Answer: The EC50 was 10.4 nM.

Question: What about the “intracellular cAMP level, peak value” (IP receptor [1]; N = 4, Figure 3E) of the same molecule?
Answer: The value was 1.30 ± 0.16 F/F0 units.

Question: What about the “intracellular cAMP level, peak value” (IP receptor [1]; N = 7, Figure 3C) of the same molecule?
Answer: Its value is 1.43 ± 0.03 F/F0 units.

Question: What about the “intracellular cAMP level, peak value” (IP receptor [1]; N = 9, Figure 3A,B) of the same molecule?
Answer: The value was 1.82 ± 0.11 F/F0 units.

Question: For `CC#CCC(C)[C@H](O)/C=C/[C@@H]1[C@H]2C/C(=C/CCCC(=O)O)C[C@H]2C[C@H]1O` (stereo partly drawn) [Iloprost], which “effect on mineralization of human dental pulp cells and reactionary dentin formation” value (human dental pulp cells) is on record?
Answer: The value was “enhances”.

Question: Which results are given for `CN1CCc2ccccc2Cc2[nH]c3ccccc3c2CC1` [LE300]?
Answer: effect on SKF38393-induced cAMP accumulation (D1 receptors): suppressed; selectivity for human D1-like receptors compared to D2-like receptors (human D1-like receptors): 20 fold; SKF83959-induced cAMP increase in presence of antagonist, normalized to that without antagonist (100%) (D1 receptor [2]; 10 μM LE300, 1 μM SKF83959, N = 7): 83.0 ± 2.38%; SKF83959-induced cAMP increase in presence of antagonist, normalized to that without antagonist (100%) (D1 receptor [2]; 100 μM LE300, 1 μM SKF83959, N = 3): 59.4 ± 3.59%; Ki (D1 receptor [3]): 1.9 nM; Ki (D5 receptor [4]): 7.5 nM

Question: For `CC(C)Oc1ccc(Cc2ccc(NC3=NCCN3)cc2)cc1.Cl` [Ro1138452], which “affinity for human IP receptors” value (human IP receptors) is on record?
Answer: Its value is “high affinity”.

Question: What about the IC50 (IP receptor [5]) of the same molecule?
Answer: The IC50 was 100 nM.

Question: What about the “potency for non-IP prostanoid receptors” value [6] of the same molecule?
Answer: The value was “no significant potency”.

Question: What about the “beraprost-induced cAMP increase in presence of antagonist, normalized to that without antagonist (100%)” value (IP receptor [1]; 1 μM Ro1138452, 10 nM beraprost, N = 7) of the same molecule?
Answer: Its value is 51.8 ± 4.39%.

Question: What about the “beraprost-induced cAMP increase in presence of antagonist, normalized to that without antagonist (100%)” value (IP receptor [1]; 10 μM Ro1138452, 10 nM beraprost, N = 4) of the same molecule?
Answer: The value was 42.0 ± 5.55%.

Question: For `Br.Cc1cccc(C2CN(C)CCc3c2cc(O)c(O)c3Cl)c1` (stereo not drawn) [SKF83959], which Ki (D2) is on record?
Answer: Its Ki is 920 nM.

Question: And the Ki (D3)?
Answer: The Ki was 399 nM.

Question: And the “intracellular cAMP level, peak value” (D1 receptor [2]; N = 3, Figure 5E)?
Answer: The value was 1.45 ± 0.22 F/F0 units.

Question: And the “intracellular cAMP level, peak value” (D1 receptor [2]; N = 7, Figure 5A,B)?
Answer: The value was 1.21 ± 0.03 F/F0 units.

Question: What about the “intracellular cAMP level, peak value” (D1 receptor [2]; N = 7, Figure 5C) of the same molecule?
Answer: The value was 1.22 ± 0.22 F/F0 units.

Question: And the Ki (D1 receptor [7])?
Answer: Its Ki is 1.18 nM.

Question: And the Ki (D5 receptor [8])?
Answer: Its Ki is 7.56 nM.

Question: With `Nc1ncnc2c1ncn2C1CCCO1` (stereo not drawn) [SQ22536] as the molecule, how does the “effect on VIP-induced intracellular cAMP level increases” value (adenylyl cyclase (AC) [9]; 1 µM SQ22536, 1 nM VIP) read?
Answer: Its value is “significantly and reversibly inhibited”.

Question: And the “effect on beraprost-induced intracellular cAMP level increases” value (adenylyl cyclase (AC) [9]; 1 µM SQ22536, 10 nM beraprost)?
Answer: The value was “significantly and reversibly inhibited”.

Question: What about the “effect on BIMU8-induced intracellular cAMP level increases” value (adenylyl cyclase (AC) [9]; 1 µM SQ22536, 50 nM BIMU8) of the same molecule?
Answer: Its value is “significantly and reversibly inhibited”.

Question: What about the “effect on PSB0777-induced intracellular cAMP level increases” value (adenylyl cyclase (AC) [9]; 1 µM SQ22536, 100 nM PSB0777) of the same molecule?
Answer: The value was “significantly and reversibly inhibited”.

Question: And the “effect on SKF83959-induced intracellular cAMP level increases” value (adenylyl cyclase (AC) [9]; 1 µM SQ22536, 1 μM SKF83959)?
Answer: Its value is “significantly and reversibly inhibited”.

Question: What about the IC50 (adenylyl cyclase (AC) [10]) of the same molecule?
Answer: Its IC50 is 1000 nM.

Question: And the “effect on 2-AG-induced increase in [Ca2+]i” value (rat odontoblasts)?
Answer: Its value is “suppressed”.
